Legend:
ICR male mice = experiment: Abdominal constriction test of visceral pain (acetic acid-induced writhing); assay type: in vivo
Procedure: Specific pathogen-free outbred ICR male mice (6 to 8 weeks old, weighing 29 to 33 g) were obtained from the Animal Breeding Facility of the Branch of the Shemyakin-Ovchinnikov Institute of Bioorganic Chemistry of the Russian Academy of Sciences (Pushchino). The animals were acclimatized for 2 weeks before the experimental procedures, and were kept in two-corridor barrier rooms under a controlled environment: a temperature of 20 to 24 °C, a relative humidity of 30% to 60%, and a 12 h light cycle. The animals were housed in Type 3 standard polycarbonate cages (820 cm2) on bedding (LIGNOCEL BK 8/15, JRS, Germany), with ad libitum access to feed (SSNIFF V1534-300, Spezialdiaeten, GmbH) and filtered tap water. The mouse cages were also supplied with material for environmental enrichment, i.e., Mouse House (Techniplast, Italy). Sevanol or the vehicle was administered intravenously, intranasally and orally (30 min before testing).
The mice were divided into separate groups, and sevanol or saline was administrated (30 min before testing) as described above. Acetic acid in saline (0.6%, 10 mL/kg) was injected intraperitoneally. The mice were moved into transparent glass cylinders, and the number of writhes was registered for 15 min.
Figure 5 The analgesic and anti-inflammatory effects of sevanol following intravenous, intranasal and per os administration. The effect of sevanol on the acetic acid induced writhing (A–C) and on the mice withdrawal latency on a hot plate in the thermal hyperalgesia test after CFA injection (D–F) upon intravenous (A,D), intranasal (B,E) and oral (C,F) administration. […] The results are presented as the mean ± SD (n = 6–10). The p-values of the sevanol groups vs. the saline group are based on an analysis of variance and on Tukey’s test; * p < 0.05, ** p < 0.005, *** p < 0.001.

mice = test system: mice; design: method as in PMID 30545037; conditions: parenteral, 0.01–10 mg/kg; cited from earlier work
rat ASIC1a = target: T1, rat ASIC1a (Rattus norvegicus, UniProt P55926); experiment: Two-electrode voltage clamp on X. laevis oocytes expressing rat ASIC1a; assay type: cell-based
T1 construct: expressed in transfected cells; host or cells: Xenopus laevis oocytes (cRNA injection)
T1 sequence (P55926 1-526): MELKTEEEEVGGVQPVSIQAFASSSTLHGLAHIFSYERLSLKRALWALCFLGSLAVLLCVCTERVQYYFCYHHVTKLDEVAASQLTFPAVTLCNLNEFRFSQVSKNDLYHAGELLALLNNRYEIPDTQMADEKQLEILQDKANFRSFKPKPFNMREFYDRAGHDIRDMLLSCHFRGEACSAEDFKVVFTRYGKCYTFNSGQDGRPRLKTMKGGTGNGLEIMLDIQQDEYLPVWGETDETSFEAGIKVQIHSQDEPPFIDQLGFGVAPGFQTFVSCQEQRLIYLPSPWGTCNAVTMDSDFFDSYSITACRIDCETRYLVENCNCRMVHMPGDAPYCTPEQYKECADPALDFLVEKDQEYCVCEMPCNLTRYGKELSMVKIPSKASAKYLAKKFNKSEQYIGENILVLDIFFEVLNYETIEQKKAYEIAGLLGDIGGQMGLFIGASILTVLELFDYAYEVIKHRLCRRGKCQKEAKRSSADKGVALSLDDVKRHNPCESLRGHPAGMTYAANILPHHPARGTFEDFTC
Procedure: Testing the activity of synthetic sevanol (s706) (as a mixture of 75% of sevanol and 25% of isosevanol) and its analogues (s590, EA, and s788) was carried out by the standard two-electrode voltage clamp method on X. laevis oocytes expressing rat ASIC1a and ASIC3 channels. The activation of the channels was performed using a rapid change of the solution from conditioning pH 7.4 to a solution with pH 5.5. Sevanol and its two analogues, s590 and EA, inhibited ASIC1a and ASIC3 channels.
Oocytes were harvested from female frogs anaesthetized with tricaine methane sulfonate (MS222) (0.17% solution), and the surgery was performed in an ice bath to avoid heavy bleeding. Defolliculated stage IV and V cells were injected with 2.5 and 10 ng cRNA, synthesized from PCi plasmids containing the rat ASIC1a and rat ASIC3 isoforms, respectively, using the Nanoliter 2000 microinjection system (World Precision Instruments, USA). The injected oocytes were kept for 2–3 days at 17 to 19 °C, and then for up to 5 days at 15 °C in a ND96 medium containing (in mM) 96 NaCl, 2 KCl, 1.8 CaCl2, 1 MgCl2, and 5 HEPES titrated to pH 7.4 with NaOH supplemented with gentamycin (50 μg/mL). Two-electrode voltage clamp recordings were performed at a holding potential of −50 mV using a GeneClamp 500 amplifier (Axon Instruments), and the data were filtered at 20 Hz and digitized at 100 Hz by an AD converter L780 (LCard, Russia). Microelectrodes were filled with 3 M KCl. The conditioning bath solution was ND96; the pH was adjusted to 7.4. The activating test solution was constructed based on the ND-96 buffer, in which 5 mM HEPES was replaced with 10 mM MES and pH was adjusted to 5.5. A computer-controlled valve system was used to achieve a rapid solution exchange in the recording chamber. A four parameter logistic equation was used for the curve-fitting analysis: F(x) = ((a1 − a2)/(1 + (x/x0)n)) + a2, where x is the concentration of the compound; F(x) is the response value at a given concentration of the compound; a1 is the control response value (fixed at 100%); x0 is the IC50 value; n is the Hill coefficient (slope factor); and a2 is the response value at the maximal inhibition (% of control).
Figure 2 The inhibitory activity of sevanol (s706) and its analogues. Currents were elicited by a drop from pH 7.4 to 5.5; the holding potential was −50 mV; (A,C) are dose–response curves for s706, s590 and EA inhibitory effects on ASIC1a and ASIC3 channels, respectively; (B,D) are reciprocal IC50 values for s706, s590 and EA inhibitory effects on ASIC1a and ASIC3 channels, respectively. The data were fitted by the logistic equation. Each point is the mean ± SEM of 5–6 measurements. * p < 0.05, ** p < 0.005.

**Q.** Which results are given for `O=C(O)CC(C(=O)O)C(OC(=O)C1=Cc2cc(O)c(O)cc2C(c2ccc(O)c(O)c2)C1C(=O)OC(C(=O)O)C(CC(=O)O)C(=O)O)C(=O)O` (stereo not shown) [sevanol]?
**A.** reduction of the number of writhes, i.n. (ICR male mice; intranasal, 1 mg/kg): more than 50%; dose producing statistically significant reduction of writhes, i.n. (ICR male mice; intranasal, 30 min before acetic acid): higher than 0.1 mg/kg; reduction of the number of writhes, i.v. (ICR male mice; intravenous, 1 mg/kg): more than 50%; dose producing statistically significant reduction of writhes, i.v. (ICR male mice; intravenous, 30 min before acetic acid): higher than 0.1 mg/kg; reduction of the number of writhes, p.o. (ICR male mice; oral, 1 mg/kg): more than 50%; dose from which effective in reducing writhes, p.o. (ICR male mice; oral, 30 min before acetic acid): ≥ 0.01 mg/kg; enhancement of analgesic and anti-inflammatory effect by oral administration versus other routes (ICR male mice; p.o. vs i.v./i.n., both tests): 10 fold; effect on CFA-induced thermal hyperalgesia (mice): significantly reversed; IC50 (rat ASIC1a; X. laevis oocytes, pH drop 7.4 to 5.5, holding potential −50 mV, mean ± SEM of 5–6, read-out: IC50, inhibition of ASIC1a current): 228 ± 37.4 µM; maximal current block, ASIC1a (rat ASIC1a; pH 7.4 to 5.5, effect reversible): 100%

From publication PMC7466040, “Sevanol and Its Analogues: Chemical Synthesis, Biological Effects and Molecular Docking” (Pharmaceuticals, 2020)
